Measured values: US20100093018A1, “CELLS […] PROTEINS AND ASSAYS USING SUCH CELLS” (ACHILLION PHARMACEUTICALS, INC., priority 2007, published 2010)

Experiments:
[1] = tested on: VX-950^R (A156T); test: Susceptibility of VX-950 resistant replicon cell line; assay type: cell-based, hepatitis C virus; conditions: VX-950^R (A156T) versus Huh-9-13
[2] = tested on: NI-1^R (S282T); test: Susceptibility of NI-1 resistant replicon cell line; assay type: cell-based, hepatitis C virus; conditions: NI-1^R (S282T) versus Huh-9-13
[3] = tested on: NM107^R (S282T); test: Susceptibility of NM107 resistant replicon cell line; assay type: cell-based, hepatitis C virus; conditions: NM107^R (S282T) versus Huh-9-13
[4] = tested on: NNI-1^R (M414T); test: Susceptibility of NNI-1 resistant replicon cell line; assay type: cell-based, hepatitis C virus; conditions: NNI-1^R (M414T) versus Huh-9-13
[5] = tested on: parental replicon cellular line, Huh-9-13; test: Susceptibility of parental replicon cellular line; assay type: cell-based, hepatitis C virus; conditions: for EC50: Hepatitis C virus, read-out: EC50 ± SD
[6] = tested on: BILN 2061^R (D168V); test: Susceptibility of BILN 2061 resistant replicon cell line; assay type: cell-based, hepatitis C virus; conditions: BILN 2061^R (D168V) versus Huh-9-13
[7] = tested on: C16S or A39V replicon variant; test: Colony formation with selectable replicon under G418 and ACH-806; assay type: cell-based, hepatitis C virus; conditions: C16S or A39V versus parental selectable replicon
Source text: (§1) To further confirm the role of C16S and A39V in conferring resistance to ACH-806, we introduced both mutations, separately, into a selectable replicon which carries the neo gene and the adaptive mutations that differ from the nonselectable replicon. Following transfection of the parental replicon RNA, the C16S replicon RNA and A39V replicon RNA into Huh-7 cells, the susceptibility of these three replicons to ACH-806, as evaluated by the number of colonies formed under the treatment of both G418 and ACH-806, was compared side by side. Again, an approximately 10-fold reduction in the susceptibility of C16S or A39V replicon variant to ACH-806 was observed.

[8] = tested on: replicon variants carrying either the C16S or A39V mutation; test: Summary of three approaches on mutant replicon variants; assay type: cell-based, hepatitis C virus; conditions: all three approaches
Description: To investigate the genetic basis of resistance to ACH-806 in the resistant replicon cellular lines, specifically the role of C16S and A39V in NS3, and 1585T 1 in NS5B, we introduced these mutations separately into a nonselectable replicon containing a luciferase reporter gene. Following the transfection of the parental replicon RNA molecule and the C16S, A39V and I585T variant replicon RNA molecules into Huh-7 cells, the replication capacity of all replicons was determined as described in Method and Materials. […]
as §1, with “Again, an approximately 10-fold reduction in the susceptibility of C16S or A39V replicon variant to ACH-806 was observed.” left out
A third approach, fragment cloning, was used to reinforce the role of the C16S mutation and to exclude the role of other nonconsensus mutations in conferring resistant to ACH-806. […] The replication capacity of this resulting replicon [Luc/N3-4AR(C16)] was 95% that of its parent [Luc/N3-4AR(S16)] determined as previously described. […]

[9] = tested on: Luc/NS3-A39V replicon; test: Luciferase replicon susceptibility, NS3 A39V; assay type: cell-based, hepatitis C virus
Description: (§2) To investigate the genetic basis of resistance to ACH-806 in the resistant replicon cellular lines, specifically the role of C16S and A39V in NS3, and 1585T 1 in NS5B, we introduced these mutations separately into a nonselectable replicon containing a luciferase reporter gene. Following the transfection of the parental replicon RNA molecule and the C16S, A39V and I585T variant replicon RNA molecules into Huh-7 cells, the replication capacity of all replicons was determined as described in Method and Materials. Replicon RNA carrying the A39V mutation replicated as efficiently as its parent, whereas the C16S and I585T mutations caused a slight decrease in the replication capacity (about 75% that of the parental replicon). The susceptibility of these four replicons to ACH-806 as well as to other classes of inhibitors was compared side by side, and the results are summarized in Table 2.

[10] = tested on: Luc/NS3-C16S replicon; test: Luciferase replicon susceptibility, NS3 C16S; assay type: cell-based, hepatitis C virus
Description: as §2

[11] = tested on: Luc/NS5B-I585T; assay type: cell-based, hepatitis C virus
Description: as §2

[12] = tested on: Luc/NS3-4A^R(S16) replicon; test: Fragment-cloned luciferase replicon susceptibility, S16; assay type: cell-based; conditions: Hepatitis C virus
Source text: A third approach, fragment cloning, was used to reinforce the role of the C16S mutation and to exclude the role of other nonconsensus mutations in conferring resistant to ACH-806. A ˜3 kb fragment covering the coding region of NS3, NS4A, and part of NS4B was amplified by RT-PCR from total RNA isolated from ACH-806 resistant clone #28. The PCR product was cloned into the nonselectable replicon containing a luciferase reporter gene. Replicon RNA molecules were made from eight individual clones and were transfected into Huh-7 cells to determine the replication capacity by luciferase activity. From the eight clones, two were able to replicate efficiently and sequencing of the entire cloned fragment in these two clones confirmed the existence of C16S mutation in addition to other nonconsensus mutations. The serine at the amino acid residue of NS3 in one of these two clones was then converted back to cysteine using site-directed mutagenesis, leaving other nonconsensus mutations unchanged. The replication capacity of this resulting replicon [Luc/N3-4AR(C16)] was 95% that of its parent [Luc/N3-4AR(S16)] determined as previously described. After transfection into Huh-7 cells, the susceptibility of both replicons was compared. […]

[13] = tested on: HCV replicon; test: HCV replicon assay (Example 1); assay type: cell-based; conditions: Hepatitis C virus; Huh-7 cells expressing the HCV replicon
Description: The ability to inhibit viral replication of Hepatitis C can be tested using the HCV replicon expressed in cultured cells in which an HCV replicon construct has been incorporated. The HCV replicon system was described by Bartenschlager, et. al (Science, 285, pp. 110-113, 1999). The replicon system is predictive of in vivo activity against HCV; compounds that are active in humans uniformly evidence activity in the replicon assay.
In this assay HCV replicon containing cells are treated with different concentrations of the test compound to ascertain the ability of the test compound to suppress replication of the HCV replicon. As a positive control, HCV replicon-containing cells are treated with different concentrations of interferon alpha, a known inhibitor of HCV replication. The replicon assay system includes Neomycin Phosphotransferase (NPT) as a component of the replicon itself as a marker allowing convenient detection of the transcription of replicon gene products in the host cell. Cells in which the HCV replicon is actively replicating have high levels of NPT; the level of NPT is proportional to HCV replication. […] The NPT level of each sample may be measured using a captured ELISA. […]
HCV replicon-containing cells are examined under a microscope to ensure that cells growing well. […] The cells are counted. […]

[14] = tested on: Luc/NS3-4A^R(C16) replicon; test: Fragment-cloned luciferase replicon susceptibility, C16 revertant; assay type: cell-based, hepatitis C virus
Source text: A third approach, fragment cloning, was used to reinforce the role of the C16S mutation and to exclude the role of other nonconsensus mutations in conferring resistant to ACH-806. A ˜3 kb fragment covering the coding region of NS3, NS4A, and part of NS4B was amplified by RT-PCR from total RNA isolated from ACH-806 resistant clone #28. The PCR product was cloned into the nonselectable replicon containing a luciferase reporter gene. Replicon RNA molecules were made from eight individual clones and were transfected into Huh-7 cells to determine the replication capacity by luciferase activity. From the eight clones, two were able to replicate efficiently and sequencing of the entire cloned fragment in these two clones confirmed the existence of C16S mutation in addition to other nonconsensus mutations. The serine at the amino acid residue of NS3 in one of these two clones was then converted back to cysteine using site-directed mutagenesis, leaving other nonconsensus mutations unchanged. The replication capacity of this resulting replicon [Luc/N3-4AR(C16)] was 95% that of its parent [Luc/N3-4AR(S16)] determined as previously described. After transfection into Huh-7 cells, the susceptibility of both replicons was compared. The reversion of serine back to cysteine at amino acid residue 16 of NS3 increased the susceptibility of the replicon to ACH-806 about 10 fold and maintained the susceptibility to other classes of HCV inhibitors (Table 3). Similar results were also obtained with a fragment containing NS3, 4A and part of 4B derived from a resistant cell line carrying A39V mutation (data not shown).

[15] = tested on: Luc/Parent replicon; test: Luciferase replicon susceptibility, parent; assay type: cell-based; conditions: Hepatitis C virus, Luc/Parent replicon in Huh-7 cells, two independent experiments
Description: as §2

[16] = tested on: ACH-806 resistant replicon cellular lines (806R); test: Susceptibility of ACH-806 resistant replicon cellular lines; assay type: cell-based, hepatitis C virus; conditions: for Fold change in EC50: versus Huh-9-13
[17] = target: T1, replicase complex (Hepatitis C virus genotype 1b, UniProt Q9WMX2); test: Replicase activity in treated replicon cells (FIG. 3); assay type: cell-based; conditions: 16 hour treatment of replicon cells, concentrations as low as 50 μM
T1 construct: expressed in transfected cells; host or cells: HCV replicon cells (Huh-7 derived)
T1 sequence (Q9WMX2 1658-1711 limits assumed): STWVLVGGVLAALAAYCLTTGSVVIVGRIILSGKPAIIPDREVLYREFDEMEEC
Source text: FIG. 3. ACH-806 is a potent inhibitor of functional replicase complex production.

[18] = target: the molecule itself; test: Western blot of transfected cell lysate, treated with ACH-806
[19] = target: the molecule itself; test: anti-NS4A immunoprecipitation and immunoblot of replicon cells or NS4A-transfected cells; dimer promoted by the compound ACH-806

## COc1ccc2c(O[C@@H]3C[C@H]4C(=O)N[C@]5(C(=O)O)C[C@H]5/C=C\CCCCC[C@H](NC(=O)OC5CCCC5)C(=O)N4C3)cc(-c3csc(NC(C)C)n3)nc2c1 [BILN 2061]
[1]
  Fold change in EC50: >100
[2]
  Fold change in EC50: 1.4
[3]
  Fold change in EC50: 1.1
[4]
  Fold change in EC50: 2.8
[5]
  EC50: 1.2 nM
[5]; Parental cell line (Table 4)
  Fold change in EC50: 1.0
[6]
  Fold change in EC50: >100

## CCCCCOc1ccc(NC(=S)NC(=O)c2cccnc2)cc1C(F)(F)F [ACH-806, 1-nicotinoyl-3-(4-(pentyloxy)-3-(trifluoromethyl)phenyl)thiourea]
[7]
  reduction in the susceptibility (number of colonies formed): approximately 10 fold
[1]
  Fold change in EC50: 0.6
[8]
  decrease in the susceptibility: 10-15 fold
[9]; Luc/NS3-A39V versus Luc/Parent replicon, one experiment
  Fold change in potency, EC50: 14
[9]; {}
  Fold change in potency, EC50: 14.0
  Fold change in potency, EC90: 13.7
[2]
  Fold change in EC50: 0.8
[3]
  Fold change in EC50: 0.5
[10]; Luc/NS3-C16S versus Luc/Parent replicon
  Fold change in potency, EC50: 12
[10]; {}
  Fold change in potency, EC50: 11.1 ± 1.0
  Fold change in potency, EC90: 11.3 ± 0.9
[11]
  Fold change in potency, EC50: 0.7 ± 0.1
  Fold change in potency, EC90: 1.1 ± 0.1
[12]
  EC50: 270 ± 40 nM
  EC90: 2350 ± 240 nM
[13]
  EC50: 14 nM
[4]
  Fold change in EC50: 0.9
[14]; C16 revertant versus S16 replicon
  increase of susceptibility on reversion of serine to cysteine at residue 16 of NS3: about 10 fold
[14]; Hepatitis C virus
  EC50: 20 nM
  EC90: 240 ± 10 nM
[15]; read-out: Potency EC50
  EC50: 10 ± 10 nM
[15]; read-out: Potency EC90
  EC90: 80 ± 10 nM
[5]
  EC50: 40 nM
[5]; Parental cell line (Table 1)
  Fold change in EC50: 1.0
[5]; Parental cell line (Table 4)
  Fold change in EC50: 1.0
[16]; 806^R #6 (Selection 2), NS3 A39V
  Fold change in EC50: 18.6
[16]; 806^R #8 (Selection 2), NS3 A39V
  Fold change in EC50: 9.5
[16]; 806^R #9 (Selection 2), NS3 A39V
  Fold change in EC50: 11.5
[16]; 806^R #22 (Selection 1), NS3 C16S
  Fold change in EC50: 13.9
[16]; 806^R #23 (Selection 1), NS3 C16S
  Fold change in EC50: 18.6
[16]; 806^R #24 (Selection 1), NS3 C16S
  Fold change in EC50: 11.2
[16]; 806^R #25 (Selection 1), NS3 C16S
  Fold change in EC50: 14.9
[16]; 806^R #28 (Selection 1), NS3 C16S
  Fold change in EC50: 21.3
[16]; average over 806^R cell lines
  Average fold change in EC50: 14.9
[6]
  Fold change in EC50: 1.1
[17]
  reduction of replicase activity: more than 50%

## C[C@@]1(O)[C@H](O)[C@@H](CO)O[C@H]1n1ccc(N)nc1=O [NM107]
[2]
  Fold change in EC50: >68.7
[3]
  Fold change in EC50: 30.7
[5]; Parental cell line (Table 4)
  Fold change in EC50: 1.0

## CCC[C@H](NC(=O)[C@@H]1[C@H]2CCC[C@H]2CN1C(=O)[C@@H](NC(=O)[C@@H](NC(=O)c1cnccn1)C1CCCCC1)C(C)(C)C)C(=O)C(=O)NC1CC1 [VX-950]
[3]
  Fold change in EC50: 0.3
[4]
  Fold change in EC50: 2.3
[5]
  EC50: 610 nM
[5]; Parental cell line (Table 4)
  Fold change in EC50: 1.0
[6]
  Fold change in EC50: 2.9

B1: NS4A-cFLAG (HCV NS4A (1b) with C-terminal FLAG antibody tag) (other)
chain: STWVLVGGVLAALAAYCLTTGSVVIVGRIILSGKPAIIPDREVLYREFDEMEECDYKDDDDK
notes: also called NS4A-FLAG; product of pCl-neo-NS4A-cFlag
[18]
  binding result: binds

B2: HCV NS4A protein (other)
chain: STWVLVGGVLAALAAYCLTTGSVVIVGRIILSGKPAIIPDREVLYREFDEMEEC
notes: also called hepatitis C virus NS4A; monomer of p14
[19]
  binding result: binds
